# Reference: patent US4652638A, “3-O-acyl-4"-deoxydesmycosin derivatives” (Toyo Jozo Kabushiki Kaisha, priority 1983, dated 1987)
# Like-named read-outs stand apart in the source and are kept apart here.
# Assays:
# Assay in all cases: MIC (minimum inhibitory concentration)
# Assay type in all cases: cell-based
# [1] = tested on: Staphylococcus aureus ATCC 6538P; conditions: ATCC6538P
# [2] = tested on: Staphylococcus aureus MS353
# [3] = tested on: Staphylococcus aureus MS353 C36; conditions: MS353C36
# [4] = tested on: Staphylococcus aureus MS353 A0*; conditions: * clinical isolate, macrolide-resistant bacteria A group
# [5] = tested on: Staphylococcus aureus 0119*
# [6] = tested on: Staphylococcus aureus 0127*
# [7] = tested on: Staphylococcus epidermidis sp-al-1; conditions: SPAL1; Staphylococcus epidermidis sp-al-1; read-out: MIC
# [8] = tested on: Streptococcus pyogenes N.Y.5
# [9] = tested on: Streptococcus pyogenes 1022*
# [10] = tested on: Streptococcus faecalis 1501; conditions: Enterococcus faecalis; Streptococcus faecalis 1501; read-out: MIC
# [11] = tested on: Streptococcus agalaactiae 1020; conditions: Streptococcus agalaactiae 1020; read-out: MIC
# Sarcina lutea ATCC 9341 = conditions: Micrococcus luteus, ATCC9341; Sarcina lutea ATCC 9341; read-out: MIC
# [12] = tested on: Micrococcus flavus ATCC 10240; conditions: ATCC10240; Micrococcus flavus ATCC 10240; read-out: MIC
# [13] = tested on: Bacillus subtilis ATCC 6633; conditions: ATCC6633; Bacillus subtilis ATCC 6633; read-out: MIC
# [14] = tested on: Escherichia coli NIHJ-JC2; conditions: NIHJJC2; Escherichia coli NIHJ-JC2; read-out: MIC
# Escherichia coli B = conditions: Escherichia coli B; read-out: MIC
# [15] = tested on: Klebsiella pneumoniae ATCC 10031; conditions: ATCC10031; Klebsiella pneumoniae ATCC 10031; read-out: MIC
# Salmonella typhosa H901 = conditions: Salmonella enterica, TYPHOSA
# [16] = tested on: Salmonella enteritidis Gaertner; conditions: Salmonella enterica; Salmonella enteritidis Gaertner; read-out: MIC
# [17] = tested on: Shigella flexineri type 3a; conditions: TYPE3A
# Shigella sonnei E33 = tested on: Shigella sonnei E33
# Proteus vulgaris OX19 = conditions: read-out: MIC
# Serratia marcescens = conditions: read-out: MIC
# [18] = tested on: Pseudomonas aeruginosa IAM 1095; conditions: IAM1095; Pseudomonas aeruginosa IAM 1095; read-out: MIC
# [19] = tested on: Corynebacterium diphtheriae P.Y.8; conditions: read-out: MIC
# [20] = Streptococcus pyogenes 1022, * clinical isolate, macrolide-resistant bacteria A group, read-out: MIC
# [21] = Staphylococcus aureus 0119, * clinical isolate, macrolide-resistant bacteria A group, read-out: MIC
SMILES,MIC [1],MIC [2],MIC [3],MIC [7],MIC [8],MIC [10],MIC [11],MIC (Sarcina lutea ATCC 9341),MIC [12],MIC [13],MIC [14],MIC (Escherichia coli B),MIC [15],MIC (Salmonella typhosa H901),MIC [16],MIC [17],MIC (Shigella sonnei E33),MIC (Proteus vulgaris OX19),MIC (Serratia marcescens),MIC [18],other results
"CCC1OC(=O)CC(OC(C)=O)C(C)C(OC2OC(C)C(O)C(N(C)C)C2O)C(CC=O)CC(C)C(=O)C=CC(C)=CC1COC1OC(C)CC(OC)C1OC (stereo not drawn) [Example 1, 3-O-acetyl-4""-deoxydesmycosin]",0.4 µg/mL,0.2 µg/mL,0.2 µg/mL,0.1 µg/mL,≤ 0.05 µg/mL,0.8 µg/mL,0.1 µg/mL,≤ 0.05 µg/mL,≤ 0.05 µg/mL,0.2 µg/mL,> 100 µg/mL,> 100 µg/mL,25 µg/mL,> 100 µg/mL,> 100 µg/mL,50 µg/mL,> 100 µg/mL,25 µg/mL,> 100 µg/mL,> 100 µg/mL,"MIC [4]: > 100 µg/mL; MIC ([5]; Staphylococcus aureus): 100 µg/mL; MIC ([6]; Staphylococcus aureus): > 100 µg/mL; MIC [9, 20]: 50 µg/mL"
"CCC(=O)OC1CC(=O)OC(CC)C(COC2OC(C)CC(OC)C2OC)C=C(C)C=CC(=O)C(C)CC(CC=O)C(OC2OC(C)C(O)C(N(C)C)C2O)C1C (stereo not drawn) [Example 2, 3-O-propionyl-4""-deoxydesmycosin]",0.4 µg/mL,0.2 µg/mL,0.2 µg/mL,≤ 0.05 µg/mL,≤ 0.05 µg/mL,0.4 µg/mL,0.1 µg/mL,≤ 0.05 µg/mL,≤ 0.05 µg/mL,0.1 µg/mL,> 100 µg/mL,100 µg/mL,25 µg/mL,> 100 µg/mL,> 100 µg/mL,50 µg/mL,> 100 µg/mL,50 µg/mL,> 100 µg/mL,50 µg/mL,"MIC [4]: 12.5 µg/mL; MIC [5, 21]: 25 µg/mL; MIC ([6]; Staphylococcus aureus): 12.5 µg/mL; MIC ([9]; Streptococcus pyogenes): 12.5 µg/mL"
"CCCC(=O)OC1CC(=O)OC(CC)C(COC2OC(C)CC(OC)C2OC)C=C(C)C=CC(=O)C(C)CC(CC=O)C(OC2OC(C)C(O)C(N(C)C)C2O)C1C (stereo not drawn) [Example 3, 3-O-butyryl-4""-deoxydesmycosin]",0.4 µg/mL,0.4 µg/mL,0.2 µg/mL,≤ 0.05 µg/mL,≤ 0.05 µg/mL,0.2 µg/mL,0.1 µg/mL,≤ 0.05 µg/mL,≤ 0.05 µg/mL,0.1 µg/mL,> 100 µg/mL,> 100 µg/mL,25 µg/mL,> 100 µg/mL,> 100 µg/mL,50 µg/mL,> 100 µg/mL,50 µg/mL,> 100 µg/mL,> 100 µg/mL,"MIC [5, 21]: 25 µg/mL; MIC ([6]; Staphylococcus aureus 0127, * clinical isolate, macrolide-resistant bacteria A group, read-out: MIC): 25 µg/mL; MIC [9, 20]: 12.5 µg/mL; MIC [19]: ≤ 0.05 µg/mL"
"CCC1OC(=O)CC(OC(=O)c2ccccc2)C(C)C(OC2OC(C)C(O)C(N(C)C)C2O)C(CC=O)CC(C)C(=O)C=CC(C)=CC1COC1OC(C)CC(OC)C1OC (stereo not drawn) [Example 5, 3-O-benzoyl-4""-deoxydesmycosin]",0.2 µg/mL,0.2 µg/mL,0.2 µg/mL,0.1 µg/mL,≤ 0.05 µg/mL,1.6 µg/mL,0.2 µg/mL,≤ 0.05 µg/mL,≤ 0.05 µg/mL,0.1 µg/mL,> 100 µg/mL,> 100 µg/mL,25 µg/mL,> 100 µg/mL,> 100 µg/mL,100 µg/mL,> 100 µg/mL,50 µg/mL,> 100 µg/mL,> 100 µg/mL,"MIC [4]: 50 µg/mL; MIC ([5]; Staphylococcus aureus): > 100 µg/mL; MIC ([6]; Staphylococcus aureus): > 100 µg/mL; MIC [9, 20]: 25 µg/mL"
